Experimental findings from patent US10227357B2, “Compounds and methods for kinase modulation, and indications therefor” (Plexxikon Inc., priority 2012, dated 2019) are described below.

For assay [1], the target named is T1, c-kit mutant D816V (Homo sapiens, UniProt P10721, D816V/DEL694-753).
T1 construct: residues 551-934, kinase insertion domain residues 694-753 deleted; 6x-histidine (N); made in house; host or cells: E. coli Arctic Express (DE3) RIL (Stratagene)
The experiment in a line: c-Kit mutant D816V biochemical assay, AlphaScreen. As to conditions: c-kit D816V biochemical inhibitory activity; read-out: Biochemical activity (IC50 μM) Kit D816V. The method, boiled down:
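Purified His-tagged c-Kit D816V (E. coli-expressed) assayed in 25 mM HEPES pH 7.2 with Mg/Mn, 5% DMSO and 10 μM ATP, 30 min at room temperature, 8-point 1:3 dilutions. Phosphorylation detected by AlphaScreen with streptavidin donor and PY20 acceptor beads; IC50 from signal versus concentration.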

Assay [2] has as its target T2, c-kit kinase (Homo sapiens, UniProt P10721).
T2 construct: The c-kit (or kinase domain thereof) is an active kinase in AlphaScreen; poly-Histidine tag (in-house protein only) (cleaved yes); host or cells: E. coli BL21(DE3)RIL, co-expressed with PTP1B
The experiment in a line: c-Kit biochemical assay, AlphaScreen, 10 μM ATP. Particulars: c-kit biochemical inhibitory activity; read-out: Biochemical activity (IC50 μM) Kit. The gist of the method: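 His-tagged c-Kit expressed in E. coli with co-expressed PTP1B (dephosphorylated), tag removed; 0.1 ng per reaction with biotinylated-peptide substrate in 50 mM HEPES pH 7.2, 5 mM MgCl2, 5 mM MnCl2, 5% DMSO, 10 μM ATP, 1 h at room temperature. Phosphorylation detected by AlphaScreen (streptavidin donor, PY20 acceptor beads); IC50 from 8-point 1:3 dilution series.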

T1 sequence (P10721 with tags, fused parts or gaps DEL694-753/D816V): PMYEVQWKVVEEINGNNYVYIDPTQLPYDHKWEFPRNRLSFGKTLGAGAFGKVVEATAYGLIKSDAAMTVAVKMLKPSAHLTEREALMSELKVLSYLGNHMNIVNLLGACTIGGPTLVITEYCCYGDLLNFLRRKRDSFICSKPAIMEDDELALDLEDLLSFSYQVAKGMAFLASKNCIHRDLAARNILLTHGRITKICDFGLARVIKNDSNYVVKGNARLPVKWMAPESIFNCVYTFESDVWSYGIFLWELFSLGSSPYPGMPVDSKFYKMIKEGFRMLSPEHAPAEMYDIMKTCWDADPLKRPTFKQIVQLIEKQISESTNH
T2 sequence (P10721 26-976): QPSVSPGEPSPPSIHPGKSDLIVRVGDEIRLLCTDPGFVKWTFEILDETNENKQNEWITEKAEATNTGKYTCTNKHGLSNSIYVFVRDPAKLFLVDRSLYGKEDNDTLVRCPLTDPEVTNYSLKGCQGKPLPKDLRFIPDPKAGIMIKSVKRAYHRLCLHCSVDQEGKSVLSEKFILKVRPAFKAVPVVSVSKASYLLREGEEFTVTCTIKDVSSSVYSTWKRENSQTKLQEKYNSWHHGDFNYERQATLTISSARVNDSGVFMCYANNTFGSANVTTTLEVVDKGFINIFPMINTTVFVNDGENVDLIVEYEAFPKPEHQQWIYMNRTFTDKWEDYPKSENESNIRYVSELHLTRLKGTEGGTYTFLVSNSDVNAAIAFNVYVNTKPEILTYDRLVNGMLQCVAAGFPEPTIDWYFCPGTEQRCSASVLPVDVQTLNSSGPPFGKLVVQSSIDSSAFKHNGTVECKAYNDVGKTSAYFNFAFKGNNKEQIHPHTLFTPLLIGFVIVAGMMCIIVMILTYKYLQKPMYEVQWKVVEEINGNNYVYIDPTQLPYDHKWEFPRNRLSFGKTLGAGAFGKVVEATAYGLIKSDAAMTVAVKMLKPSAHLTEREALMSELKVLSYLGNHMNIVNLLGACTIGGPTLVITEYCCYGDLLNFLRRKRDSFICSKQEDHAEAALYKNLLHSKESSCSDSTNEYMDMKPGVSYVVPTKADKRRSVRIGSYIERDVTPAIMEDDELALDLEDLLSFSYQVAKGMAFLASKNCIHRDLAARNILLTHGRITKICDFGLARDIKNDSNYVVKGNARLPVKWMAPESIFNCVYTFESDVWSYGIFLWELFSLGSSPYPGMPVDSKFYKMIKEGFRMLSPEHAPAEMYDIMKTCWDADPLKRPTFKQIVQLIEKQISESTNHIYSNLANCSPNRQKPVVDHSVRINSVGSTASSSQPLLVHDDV

`CN(C)C(=O)c1cccc(-c2cc3c(N4CCN(C(=O)Nc5ccc(OC(F)(F)F)cc5)CC4)ncnc3[nH]2)c1` [P-0085, 4-[6-[3-(dimethylcarbamoyl)phenyl]-7H-pyrrolo[2,3-d]pyrimidin-4-yl]-N-[4-(trifluoromethoxy)phenyl]piperazine-1-carboxamide]: the IC50 in assay [1] and in assay [2] was 0.0001 to 1 µM in each case.

As for `N#Cc1ccc(-c2cc3c(N4CCN(C(=O)Nc5ccc(OC(F)(F)F)cc5)CC4)ncnc3[nH]2)cc1` [P-0086, 4-[6-(4-cyanophenyl)-7H-pyrrolo[2,3-d]pyrimidin-4-yl]-N-[4-(trifluoromethoxy)phenyl]piperazine-1-carboxamide], the results for the IC50 in assay [1] and in assay [2] were 0.0001 to 1 µM and 1 to 10 µM, respectively.

With `COc1ncc(CNC(=O)N2CCN(c3ncnc4[nH]c(-c5ccc(F)cc5)cc34)CC2)cc1F` [P-0087, N-[(5-fluoro-6-methoxy-3-pyridyl)methyl]-4-[6-(4-fluorophenyl)-7H-pyrrolo[2,3-d]pyrimidin-4-yl]piperazine-1-carboxamide], the IC50 was in the range of 0.0001 to 1 µM in assay [1] and 1 to 10 µM in assay [2].

In the case of `C#Cc1cc2c(N3CCN(C(=O)Nc4ccc(OCC)cc4)CC3)ncnc2[nH]1` [P-0089, N-(4-ethoxyphenyl)-4-(6-ethynyl-7H-pyrrolo[2,3-d]pyrimidin-4-yl)piperazine-1-carboxamide], the IC50 in assay [1] was in the range of 10 to 200 µM; in assay [2], 1 to 10 µM.

As for `Cn1cc(-c2cc3c(N4CCN(C(=O)Nc5ccc(OC(F)F)cc5)CC4)ncnc3[nH]2)cn1` [P-0091, N-[4-(difluoromethoxy)phenyl]-4-[6-(1-methylpyrazol-4-yl)-7H-pyrrolo[2,3-d]pyrimidin-4-yl]piperazine-1-carboxamide], the IC50 in assay [1] and in assay [2] was 0.0001 to 1 µM in each case.

Take `Cn1cc(-c2cc3c(N4CCN(C(=O)Nc5ccc(OC(F)(F)F)cc5)CC4)ncnc3[nH]2)cn1` [P-0092, 4-[6-(1-methylpyrazol-4-yl)-7H-pyrrolo[2,3-d]pyrimidin-4-yl]-N-[4-(trifluoromethoxy)phenyl]piperazine-1-carboxamide]: the IC50 in assay [1] and in assay [2] was 0.0001 to 1 µM each time.

`COc1cccc([C@H](C)NC(=O)N2CCN(c3ncnc4[nH]c(-c5cnn(C)c5)cc34)CC2)c1` [P-0093, N-[(1S)-1-(3-methoxyphenyl)ethyl]-4-[6-(1-methylpyrazol-4-yl)-7H-pyrrolo[2,3-d]pyrimidin-4-yl]piperazine-1-carboxamide]: the IC50 in assay [1] and in assay [2] was 0.0001 to 1 µM in each case.

`C[C@H](NC(=O)N1CCN(c2ncnc3[nH]c(-c4cnn(C)c4)cc23)CC1)c1ccc(F)cc1` [P-0094, N-[(1S)-1-(4-fluorophenyl)ethyl]-4-[6-(1-methylpyrazol-4-yl)-7H-pyrrolo[2,3-d]pyrimidin-4-yl]piperazine-1-carboxamide]: the figures for the IC50 in assay [1] and in assay [2] were 0.0001 to 1 µM and 1 to 10 µM, respectively.

For `C[C@H](NC(=O)N1CCN(c2ncnc3[nH]c(-c4cnn(C)c4)cc23)CC1)c1ccc(Cl)cc1` [P-0095, N-[(1S)-1-(4-chlorophenyl)ethyl]-4-[6-(1-methylpyrazol-4-yl)-7H-pyrrolo[2,3-d]pyrimidin-4-yl]piperazine-1-carboxamide], the half-inhibitory concentration (IC50) in assay [1] and in assay [2] was 0.0001 to 1 µM throughout.

Consider `Cn1cc(-c2cc3c(N4CCN(C(=O)Nc5ccc(F)cc5)CC4)ncnc3[nH]2)cn1` [P-0096, N-(4-fluorophenyl)-4-[6-(1-methylpyrazol-4-yl)-7H-pyrrolo[2,3-d]pyrimidin-4-yl]piperazine-1-carboxamide], for which the IC50 in assay [1] and in assay [2] was 0.0001 to 1 µM each time.

In the case of `Cn1cc(-c2cc3c(N4CCN(C(=O)NCc5ccc(Cl)cc5)CC4)ncnc3[nH]2)cn1` [P-0097, N-[(4-chlorophenyl)methyl]-4-[6-(1-methylpyrazol-4-yl)-7H-pyrrolo[2,3-d]pyrimidin-4-yl]piperazine-1-carboxamide], the IC50 in assay [1] and in assay [2] was 0.0001 to 1 µM in each case.

As for `O=C(NS(=O)(=O)c1ccc(Cl)cc1)N1CCN(c2ncnc3[nH]c(-c4ccc(F)cc4)cc23)CC1` [P-0098, N-(4-chlorophenyl)sulfonyl-4-[6-(4-fluorophenyl)-7H-pyrrolo[2,3-d]pyrimidin-4-yl]piperazine-1-carboxamide], the IC50 in assay [1] and in assay [2] was 1 to 10 µM throughout.

Turning to `NS(=O)(=O)c1ccc(-c2cc3c(N4CCN(C(=O)NCc5ccc(F)cc5)CC4)ncnc3[nH]2)cc1` [P-0099, N-[(4-fluorophenyl)methyl]-4-[6-(4-sulfamoylphenyl)-7H-pyrrolo[2,3-d]pyrimidin-4-yl]piperazine-1-carboxamide], the figures for the IC50 in assay [1] and in assay [2] were 0.0001 to 1 µM and 1 to 10 µM, respectively.

With `NS(=O)(=O)c1ccc(-c2cc3c(N4CCN(C(=O)Nc5ccc(OC(F)(F)F)cc5)CC4)ncnc3[nH]2)cc1` [P-0100, 4-[6-(4-sulfamoylphenyl)-7H-pyrrolo[2,3-d]pyrimidin-4-yl]-N-[4-(trifluoromethoxy)phenyl]piperazine-1-carboxamide], the results for the IC50 in assay [1] and in assay [2] were 1 to 10 µM and 0.0001 to 1 µM, respectively.

As to `O=C(NCc1ccc(F)cc1)N1CCN(c2ncnc3[nH]c(-c4ccncc4)cc23)CC1` [P-0101, N-[(4-fluorophenyl)methyl]-4-[6-(4-pyridyl)-7H-pyrrolo[2,3-d]pyrimidin-4-yl]piperazine-1-carboxamide], the IC50 was in the range of 0.0001 to 1 µM in assay [1] and 1 to 10 µM in assay [2].

`O=C(Nc1ccc(OC(F)(F)F)cc1)N1CCN(c2ncnc3[nH]c(-c4ccncc4)cc23)CC1` [P-0102, 4-[6-(4-pyridyl)-7H-pyrrolo[2,3-d]pyrimidin-4-yl]-N-[4-(trifluoromethoxy)phenyl]piperazine-1-carboxamide]: the figures for the IC50 in assay [1] and in assay [2] were 1 to 10 µM and 0.0001 to 1 µM, respectively.

With `Cc1ccc(-c2cc3c(N4CCN(C(=O)NCc5ccc(F)cc5)CC4)ncnc3[nH]2)cn1` [P-0103, N-[(4-fluorophenyl)methyl]-4-[6-(6-methyl-3-pyridyl)-7H-pyrrolo[2,3-d]pyrimidin-4-yl]piperazine-1-carboxamide], the results for the IC50 in assay [1] and in assay [2] were 0.0001 to 1 µM and 1 to 10 µM, respectively.

As to `COc1cc(-c2cc3c(N4CCN(C(=O)NCc5ccc(F)cc5)CC4)ncnc3[nH]2)ccn1` [P-0104, N-[(4-fluorophenyl)methyl]-4-[6-(2-methoxy-4-pyridyl)-7H-pyrrolo[2,3-d]pyrimidin-4-yl]piperazine-1-carboxamide], the IC50 in assay [1] lay within 1 to 10 µM; in assay [2] it was 10 to 200 µM.

Take `NS(=O)(=O)c1cccc(-c2cc3c(N4CCN(C(=O)NCc5ccc(F)cc5)CC4)ncnc3[nH]2)c1` [P-0105, N-[(4-fluorophenyl)methyl]-4-[6-(3-sulfamoylphenyl)-7H-pyrrolo[2,3-d]pyrimidin-4-yl]piperazine-1-carboxamide]: the IC50 in assay [1] lay within 0.0001 to 1 µM; in assay [2], 1 to 10 µM.

As for `COc1ncc(-c2cc3c(N4CCN(C(=O)NCc5ccc(F)cc5)CC4)ncnc3[nH]2)cn1` [P-0106, N-[(4-fluorophenyl)methyl]-4-[6-(2-methoxypyrimidin-5-yl)-7H-pyrrolo[2,3-d]pyrimidin-4-yl]piperazine-1-carboxamide], the IC50 in assay [1] and in assay [2] was 1 to 10 µM throughout.

`CS(=O)(=O)Nc1cccc(-c2cc3c(N4CCN(C(=O)NCc5ccc(F)cc5)CC4)ncnc3[nH]2)c1` [P-0107, N-[(4-fluorophenyl)methyl]-4-[6-[3-(methanesulfonamido)phenyl]-7H-pyrrolo[2,3-d]pyrimidin-4-yl]piperazine-1-carboxamide]: the IC50 was 0.0001 to 1 µM in assay [1] and 1 to 10 µM in assay [2].
